In ChEMBL document CHEMBL1157845, “Structure-activity relationship of new anti-tuberculosis agents derived from oxazoline and oxazole benzyl esters” (Eur J Med Chem, 2010):
Values after ≈ are worked out from the molar mass of the structure shown. Active and inactive are the calls of the source. Unless noted, the calls are words filed in the database; no cut-off is given here.

Assays:
Mycobacterium avium [1] = experiment: Antimycobacterial activity against Mycobacterium avium MAC 108; type: functional, organism-based
Mycolicibacterium vaccae [2] = experiment: Antimycobacterial activity against Mycobacterium vaccae 10670; type: functional, organism-based
[3] = tested on: Mycolicibacterium smegmatis; experiment: Antimycobacterial activity against Mycobacterium smegmatis SG 987; type: functional, organism-based
[4] = tested on: Mycolicibacterium smegmatis; experiment: Antimycobacterial activity against Mycobacterium smegmatis; type: functional
Mycobacterium avium [5] = experiment: Antimycobacterial activity against Mycobacterium avium MAC 116; type: functional, organism-based
[6] = tested on: Mycolicibacterium fortuitum; experiment: Antimycobacterial activity against Mycobacterium fortuitum B by agar diffusion assay; type: functional, organism-based
Escherichia coli = experiment: Antibacterial activity against Escherichia coli SG 458; type: functional, organism-based
[7] = tested on: Mycolicibacterium fortuitum; experiment: Antimycobacterial activity against Mycobacterium fortuitum B; type: functional, organism-based
Mycolicibacterium aurum [8] = experiment: Antimycobacterial activity against Mycobacterium aurum DSM 43536; type: functional, organism-based
Mycolicibacterium aurum [9] = experiment: Antimycobacterial activity against Mycobacterium aurum SB 66; type: functional, organism-based
Bacillus subtilis = experiment: Antibacterial activity against Bacillus subtilis ATCC 6633; type: functional, organism-based
Colletotrichum = experiment: Antifungal activity against Glomerella; type: functional, organism-based
Mycobacterium avium [10] = experiment: Antimycobacterial activity against Mycobacterium avium MAC 109; type: functional, organism-based
[11] = tested on: Mycobacterium tuberculosis; experiment: Antimycobacterial activity against Mycobacterium tuberculosis Erdman infected in BALB/c mouse assessed as reduction of bacterial load at 200 mg/kg, po qd for 5 days per week administered 60 days after infection measured after 85 days post infection; type: functional, organism-based; parameters: dose 200 mg/kg
Staphylococcus aureus = experiment: Antibacterial activity against Staphylococcus aureus SG 511; type: functional, organism-based
Proteus vulgaris = experiment: Antibacterial activity against Proteus vulgaris OX 19; type: functional, organism-based
Mycolicibacterium vaccae [12] = experiment: Antimycobacterial activity against Mycobacterium vaccae 10670 by agar diffusion assay; type: functional, organism-based
[13] = tested on: Sporobolomyces salmonicolor; experiment: Antimicrobial activity against Sporobolomyces salmonicolor SBUG 549; type: functional, organism-based
[14] = tested on: Mycobacterium tuberculosis; experiment: Antimycobacterial activity against Mycobacterium tuberculosis assessed as growth inhibition at 12.5 ug/mL; type: functional
Mycobacterium avium [15] = experiment: Antimycobacterial activity against Mycobacterium avium MAC 101; type: functional, organism-based
Mycobacterium avium [16] = experiment: Antimycobacterial activity against Mycobacterium avium MAC 100; type: functional, organism-based
Candida albicans = experiment: Antifungal activity against Candida albicans; type: functional, organism-based
Micrococcus luteus = experiment: Antibacterial activity against Micrococcus luteus ATCC 10240; type: functional, organism-based
[17] = tested on: Mycobacterium tuberculosis; experiment: Antimycobacterial activity against Mycobacterium tuberculosis Erdman infected in BALB/c mouse assessed as reduction of bacterial load at 50 mg/kg, po qd for 5 days per week administered 60 days after infection measured after 85 days post infection; type: functional, organism-based; parameters: dose 50 mg/kg
[18] = tested on: Mycobacterium tuberculosis; experiment: Antimycobacterial activity against Mycobacterium tuberculosis H37Rv ATCC 27294 incubated 10 days under anaerobic condition measured after 24 hrs recovery in air by luciferase based low oxygen recovery assay; type: functional
[19] = tested on: Mycobacterium tuberculosis; experiment: Antimycobacterial activity against Mycobacterium tuberculosis H37Rv ATCC 27294 in GAS medium after 1 week by microplate alamar blue assay; type: functional; conditions: H37Rv ATCC 27294, 168 h
Vero = experiment: Cytotoxicity against african green monkey Vero cells by colorimetric assay; type: cell-based; conditions: Chlorocebus sabaeus
Mus musculus [20] = experiment: Toxicity in mouse assessed as change in body weight at 100 mg/kg, po qd for 5 days followed by 2 days rest and 200 mg/kg, po qd for 5 days; type: organism-based; conditions: in vivo
[21] = Chemical stability in simulated gastric fluid assessed as compound remaining after 2 hrs by HPLC analysis; type: physicochemical; conditions: simulated gi fluid
Mus musculus [22] = experiment: Toxicity in mouse assessed as behavioral change at 100 mg/kg, po qd for 5 days followed by 2 days rest and 200 mg/kg, po qd for 5 days; type: organism-based; conditions: in vivo
[23] = tested on: Mycobacterium tuberculosis; experiment: Antimycobacterial activity against Mycobacterium tuberculosis H37Rv ATCC 27294 in GAST medium after 1 week by microplate alamar blue assay; type: functional; conditions: H37Rv ATCC 27294, 168 h
Mus musculus [24] = experiment: Toxicity in mouse assessed as change in gross appearance at 100 mg/kg, po qd for 5 days followed by 2 days rest and 200 mg/kg, po qd for 5 days; type: organism-based; conditions: in vivo
Liver microsomes = experiment: Metabolic stability in Sprague-Dawley rat microsomes assessed as compound remaining after 15 mins by HPLC analysis; type: ADME, Microsome; conditions: 0.25 h
[25] = tested on: Mycobacterium tuberculosis; experiment: Antimycobacterial activity against Mycobacterium tuberculosis; type: functional
[26] = tested on: Mycobacterium tuberculosis; experiment: Antimycobacterial activity against Mycobacterium tuberculosis Erdman infected in BALB/c mouse assessed as reduction of bacterial load at 10 mg/kg, po qd for 5 days per week administered 60 days after infection measured after 85 days post infection relative to untreated control; type: functional
[27] = tested on: Mycobacterium tuberculosis; experiment: Antimycobacterial activity against Mycobacterium tuberculosis H37Rv; type: functional

SMILES	Activity (Mycobacterium avium [1])	Activity (Mycolicibacterium vaccae [2])	Activity [3]	MIC [4]	Activity (Mycobacterium avium [5])	Activity [6]	Activity (Escherichia coli)	Activity [7]	Activity (Mycolicibacterium aurum [8])	Activity (Mycolicibacterium aurum [9])	Activity (Bacillus subtilis)	Activity (Colletotrichum)	Activity (Mycobacterium avium [10])	Activity [11]	Activity (Staphylococcus aureus)	Activity (Proteus vulgaris)	Activity (Mycolicibacterium vaccae [12])	Activity [13]	MIC [19]	IC50 (Vero)	also measured
CCCCCCCCCCCCCCCC(=O)N(O)CCCC[C@H](NC(=O)[C@@H]1COC(c2ccccc2O)=N1)C(=O)O[C@@H](C)CC(=O)N[C@H]1CCCCN(O)C1=O [MYCOBACTIN S]	inactive	inactive	inactive	3.1 µM (≈ 2.49 µg/mL)	inactive	Active	inactive	inactive	inactive	inactive	inactive	inactive	inactive	inactive	inactive	inactive	Active	inactive	–	–	inhibition at 12.5 µg/mL [14]: 99%; Activity (Mycobacterium avium [15]): inactive; Activity (Mycobacterium avium [16]): inactive; Activity (Candida albicans): inactive; Activity (Micrococcus luteus): inactive
O=C(OCc1ccccc1)c1coc(-c2ccc(F)c([N+](=O)[O-])c2)n1	inactive	inactive	inactive	–	inactive	Active	inactive	inactive	inactive	inactive	inactive	inactive	inactive	inactive	inactive	inactive	Active	inactive	1.1 µM (≈ 0.377 µg/mL)	> 128 µM	Activity [17]: inactive; MIC [18]: 31.9 µM (≈ 10.9 µg/mL); Activity (Mus musculus [20]): 12%; Stability [21]: 2.1%; Activity (Mus musculus [22]): Non-toxic; MIC [23]: 0.48 µM (≈ 0.164 µg/mL); Activity (Mus musculus [24]): Non-toxic; Activity (Mycobacterium avium [15]): inactive; Activity (Mycobacterium avium [16]): inactive; Activity (Candida albicans): inactive; Activity (Micrococcus luteus): inactive; Stability (Liver microsomes): 8.1%
O=C(OCc1ccccc1)[C@@H]1COC(c2ccccc2OCc2ccccc2)=N1	–	–	–	–	–	–	–	–	–	–	–	–	–	inactive	–	–	–	–	12.6 µM (≈ 4.88 µg/mL)	> 128 µM	MIC [18]: 67.3 µM (≈ 26.1 µg/mL); Activity (Mus musculus [20]): Non-toxic; Stability [21]: 1.4%; Activity (Mus musculus [22]): Non-toxic; MIC [25]: 7.7 µM (≈ 2.98 µg/mL); Activity (Mus musculus [24]): Non-toxic; Stability (Liver microsomes): 8.4%
CO[C@H]1/C=C/O[C@@]2(C)Oc3c(C)c(O)c4c(O)c(c(/C=N/N5CCN(C)CC5)c(O)c4c3C2=O)NC(=O)/C(C)=C\C=C\[C@H](C)[C@H](O)[C@@H](C)[C@@H](O)[C@@H](C)[C@H](OC(C)=O)[C@@H]1C [RIFAMPIN]	–	–	–	–	–	–	–	–	–	–	–	–	–	–	–	–	–	–	0.06 µM (≈ 0.0494 µg/mL)	125 µM	MIC [23]: 0.01 µM (≈ 0.00823 µg/mL); fold change (FC) [26]: >2
CCCCCCCCCCCCCCCC(=O)N(O)CCCC[C@H](NC(=O)[C@@H]1COC(c2ccccc2O)=N1)C(=O)OC[C@H](NC(=O)OC(C)(C)C)C(=O)N[C@H]1CCCCN(O)C1=O	–	–	–	0.2 µM (≈ 0.181 µg/mL)	–	–	–	–	–	–	–	–	–	inactive	–	–	–	–	–	–	MIC [27]: < 0.2 µM
